Results: patent US6169181A, “Compounds useful to treat retroviral infections” (Pharmacia & Upjohn Company, priority 1998, dated 2001)
Several values for one entry are separate records, joined by “and”; a condition that tells them apart may be missing. Equal entries are not always repeated. Where two headings read alike, the source gives them in different places. Values belong to the compound of their own block, whether it stands above or below them.

Key:
[1] = target: T1, single chain tethered (tandem) HIV protease (HIV-1 M:B_HXB2R, UniProt P04585); test: Tandem HIV protease assay; assay type: biochemical; details: Table II, enzyme HIV1TANDEM; for Ki: read-out: FITC KI
T1 construct: purified enzyme, FITC/biotin substrate assay
Experimental: In the enzyme inhibition assay described above, the sensitivity of Ki value determination is in part limited by the ability to continue to lower the enzyme concentration for compounds with high binding affinity. To prevent de-dimerization at low enzyme concentration, a tandemly linked enzyme is prepared in which the two monomers are covalently linked by an appropriate stretch of amino acid residues. Using the latter enzyme, the sensitivity of the inhibition assay is improved since much lower enzyme concentration can be utilized, as compared to the condition using the wild-type enzyme.
The starting inhibitor concentrations are determined based on preliminary enzyme inhibition screening results which estimate the expected potency of the inhibitor. Inhibitor concentrations are then prepared using the Biomek 1000 (Beckman) and the Quadra 96 (Tomtec). Substrate (biotinylated at the amino terminal arginine and fluorescently labeled with fluorescein at the carboxyl terminal lysine), inhibitor and the tandem enzyme are allowed to react in solution at pH 5.5 (buffers identical to those used with the native dimeric enzyme) in the dark for 96 hours. Streptavidin coated polystyrene beads are added to stop the reaction. The labeled cleavage product is separated from unreacted substrate via filtration. Residual fluorescence is quantitated with the Idexx SM2000 (Idexx) and the resulting data are analyzed using the NLLSF program.

[2] = target: T2, HIV-1 protease (Human immunodeficiency virus type 1 group M subtype B, UniProt P04585); test: biochemical; details: for inhibition at 0.123 µM / inhibition at 0.37 µM / inhibition at 1.1 µM / inhibition at 3.3 µM / inhibition at 10 µM / inhibition at 30 µM: read-out: Protease % Inhib
How it was run: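 A substrate biotinylated at the N-terminal arginine and FITC-labelled at the C-terminal lysine was incubated with HIV-1 protease (10 μl of 0.1 μM) and compound for 1 h in the dark at room temperature. Buffer was 0.1 M sodium acetate pH 5.5, 1.0 M NaCl, 0.05% NP-40. Labelled product was separated from substrate using streptavidin beads and filtration, and the fluorescence gave percent inhibition.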

[3] = target: T2, HIV-1 protease; test: biochemical
How it was run: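 Biotinylated, FITC-labelled peptide substrate cleaved in 0.1 M sodium acetate pH 5.5, 1.0 M NaCl, 0.05% NP-40, room temperature. Filtered labelled product read by fluorescence; nonlinear least-squares fit.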

[4] = Table II, enzyme HIV-1, DOSE 0.123 (unit not given)
[5] = Table II, enzyme HIV-1, DOSE 0.370 (unit not given)
[6] = Table II, enzyme HIV-1, DOSE 1.100 (unit not given)
[7] = Table II, enzyme HIV-1, DOSE 3.300 (unit not given)
[8] = Table II, enzyme HIV-1, DOSE 10.000 (unit not given)
[9] = Table II, enzyme HIV-1, DOSE 30.000 (unit not given)
[10] = Table II, enzyme HIV-1, read-out: FITC KI
[11] = Table I, read-out: HIV Protease FITC Assay Ki

Compound: CCCC1(CCC)CC(O)=C(C(c2cccc(NS(=O)(=O)c3ccc(C#N)cn3)c2)C(C)(C)C)C(=O)O1 (single isomer, unassigned) [Example 322, 5-Cyano-N-[3(R or S)-(1-[5,6-dihydro-6,6-dipropyl-4-hydroxy-2-oxo-2H-pyran-3-yl]-2,2-dimethyl-propyl)phenyl]-2-pyridine-sulfonamide]
Ki [1]: 1.07 nM and 1.29 nM

Compound: CCC[C@@]1(CCc2ccc(F)cc2)CC(O)=C([C@H](CC)c2cccc(NS(=O)(=O)c3ccc(C#N)cn3)c2)C(=O)O1 (single isomer, unassigned) [Example 365, N-[3-{1(R or S)-(4-Hydroxy-5,6-dihydro-2-oxo-6(R or S)-(2-(4-fluorophenyl)ethyl)-6-propyl-2H-pyran-3-yl)propyl}phenyl]-5-cyanopyridine-2-sulfonamide]
Ki [1]: 0.023 nM

Compound: CCCC1(CCc2ccccc2)CC(O)=C([C@@H](CC)c2cccc(NS(=O)(=O)c3ccc(C(F)(F)F)cn3)c2)C(=O)O1 (stereo partly drawn) [Example 374, N-[3-[1-(S)-[5,6,-Dihydro-4-hydroxy-2-oxo-6-(2-phenylethyl)-6-propyl-2H-pyran-3-yl]propyl]phenyl]-5-(triflouromethyl)-2-pyridinesulfonamide]
PROTEASE % INHIB. ([1]; DOSE 0.123 (unit not given)): 78.97%
PROTEASE % INHIB. ([1]; DOSE 0.370 (unit not given)): 82.14%
PROTEASE % INHIB. ([1]; DOSE 1.100 (unit not given)): 84.98%
PROTEASE % INHIB. ([1]; DOSE 3.300 (unit not given)): 87.70%
PROTEASE % INHIB. ([1]; DOSE 10.000 (unit not given)): 95.25%
PROTEASE % INHIB. ([1]; DOSE 30.000 (unit not given)): 80.11%
Ki [1]: 0.031 nM

Compound: CC(C)(C)C(C1=C(O)CC(CCc2ccccc2)(CCC(F)(F)F)OC1=O)c1cccc(NS(=O)(=O)c2ccc(N)cn2)c1 (single isomer, unassigned) [Example 271, 5-amino-N-[3-(R or S)-[1-[5,6-dihydro-4-hydroxy-2-oxo-6-(2-phenethyl)-6-(R or S)-(3,3,3-trifluoropropyl)-2H-pyran-3-yl]-2,2-dimethylpropyl]phenyl]-2-pyridinesulfonamide]
Ki [1]: 0.051 nM

Compound: CCCC1(CCC)CC(O)=C(C(c2cccc(NS(=O)(=O)c3ccc(N)cn3)c2)C(C)(C)C)C(=O)O1 (single isomer, unassigned) [Example 320, 5-Amino-N-[3(R or S)-(1-[5,6-dihydro-6,6-dipropyl-4-hydroxy-2-oxo-2H-pyran-3-yl]-2,2-dimethyl-propyl)phenyl]-2-pyridine sulfonamide]
Ki [1]: 0.071 nM and 0.05 nM and 0.075 nM

Compound: CCCC1(CCc2ccccc2)CC(O)=C(C(c2cccc(NS(=O)(=O)c3cc(C(F)(F)F)ccn3)c2)C(C)(C)C)C(=O)O1 (single isomer, unassigned) [Example 296, 4-Trifluoromethyl-N-[3(R or S)-[1-[5,6-dihydro-4-hydroxy-2-oxo-6(R or S)-(2-phenethyl)-6(R or S)-n-propyl-2H-pyran-3-yl]-2,2-dimethylpropyl]-phenyl]-2-pyridinesulfonamide]
Ki [1]: 0.042 nM

Compound: CCC[C@@]1(CCc2ccccc2)CC(O)=C([C@@H](c2cccc(NS(=O)(=O)c3ccc(N)cn3)c2)C(C)(C)C)C(=O)O1 (single isomer, unassigned) [Example 312, 5-Amino-N-[3(R or S)-(1-[5,6-dihydro-4-hydroxy-2-oxo-6(R or S)-(2-phenylethyl)-6-propyl-2H-pyran-3-yl]-2,2-dimethylpropyl)-phenyl]-2-pyridinesulfonamide]
Ki [1]: 0.255 nM

Compound: CC(C)(C)C(C1=C(O)CC(CCc2ccccc2)(CCC(F)(F)F)OC1=O)c1cccc(NS(=O)(=O)c2ccc(N)cn2)c1 (single isomer, unassigned) [Example 268, 5-amino-N-[3-(R or S)-[1-[5,6-dihydro-4-hydroxy-2-oxo-6-(2-phenethyl)-6-(R or S)-(3,3,3-trifluoropropyl)-2H-pyran-3-yl]-2,2-dimethylpropyl]phenyl]-2-pyridinesulfonamide]
Ki [1]: 0.835 nM

Compound: CCCC1(CCc2ccccc2)CC(O)=C(C(c2cccc(NS(=O)(=O)c3ccc(C(F)(F)F)cn3)c2)C(C)(C)C)C(=O)O1 (single isomer, unassigned) [Example 295, 5-Trifluoromethyl-N-[3 (R or S)-[1-[5,6-dihydro-4-hydroxy-2-oxo-6(R or S)-(2-phenethyl)-6(R or S)-n-propyl-2H-pyran-3-yl]-2,2-dimethylpropyl]-phenyl]-2-pyridinesulfonamide]
Ki [1]: 0.071 nM

Compound: CCCC1(CCc2ccc(F)cc2)CC(O)=C(C(c2cccc(NS(=O)(=O)c3cccc4cccnc34)c2)C(C)(C)C)C(=O)O1 (stereo not shown) [Example 329, N-[3-{1-(4-Hydroxy-5,6-dihydro-2-oxo-6-(2-(4-fluorophenyl)ethyl)-6-propyl-2H-pyran-3-yl)-2,2-dimethylpropyl)phenyl]-8-quinolinesulfonamide]
PROTEASE % INHIB. [2, 4]: 46.4%
PROTEASE % INHIB. [2, 5]: 88.19%
PROTEASE % INHIB. [2, 6]: 96.63%
PROTEASE % INHIB. [2, 7]: 100.32%
PROTEASE % INHIB. [2, 8]: 97.07%
PROTEASE % INHIB. [2, 9]: 96.35%
Ki [3, 10]: 12 nM

Compound: CCCC1(CCC)CC(O)=C(C(c2cccc(NS(=O)(=O)c3cn(C)cn3)c2)C2CC2)C(=O)O1 (single isomer, unassigned) [Example 56, (R or S)-N-[3-[1-(4-Hydroxy-2-oxo-6,6-dipropyl-5,6-dihydro-2H-pyran-3-yl)-cyclopropylmethyl]-phenyl]-1-methyl-1H-imidazole-4-sulfonamide]
inhibition at 0.123 µM ([2]; Table I, Dose 0.123 μM): 104%
inhibition at 0.37 µM ([2]; Table I, Dose 0.370 μM): 108%
inhibition at 1.1 µM ([2]; Table I, Dose 1.100 μM): 105%
inhibition at 3.3 µM ([2]; Table I, Dose 3.300 μM): 105%
inhibition at 10 µM ([2]; Table I, Dose 10.000 μM): 115%
inhibition at 30 µM ([2]; Table I, Dose 30.000 μM): 111%
Ki [3, 11]: 0.23 nM

Compound: COCCOCCOCCOc1ccc2c(O)c(C(c3cccc(NS(=O)(=O)c4ccccn4)c3)C3CC3)c(=O)oc2c1 (stereo not shown) [Example 154, N-(3-{Cyclopropyl-[7-(2-(2-(2-methoxyethoxy)-ethoxy)ethoxy)-4-hydroxycoumarin-3-yl]-methyl}-phenyl)-2-pyridinesulfonamide]
inhibition at 0.123 µM [2]: 99.8%
inhibition at 0.37 µM [2]: 98.2%
inhibition at 1.1 µM [2]: 99.5%
inhibition at 3.3 µM [2]: 97.6%
inhibition at 10 µM [2]: 104%
inhibition at 30 µM [2]: 99.2%
Ki ([3]; HIV Protease FITC Assay Ki): 0.22 nM

Compound: CCCC1(CCc2ccccc2)CC(O)=C(C(c2cccc(NS(=O)(=O)c3ccc(F)cc3)c2)C2CC2)C(=O)O1 (stereo not shown) [Example 59]
inhibition at 0.123 µM ([2]; Table I, Dose 0.123 μM): 76.7%
inhibition at 0.37 µM ([2]; Table I, Dose 0.370 μM): 90.5%
inhibition at 1.1 µM ([2]; Table I, Dose 1.100 μM): 102%
inhibition at 3.3 µM ([2]; Table I, Dose 3.300 μM): 99.9%
inhibition at 10 µM ([2]; Table I, Dose 10.000 μM): 105%
inhibition at 30 µM ([2]; Table I, Dose 30.000 μM): 102%
Ki [3, 11]: 3.5 nM

Compound: Cc1ccc(S(=O)(=O)Cc2cccc(C(c3c(O)c4c(oc3=O)CCCCCC4)C3CC3)c2)cc1 (stereo not shown) [Example 13, 3-[cyclopropyl[3-[(4-methylphenylsulfonyl)methyl]phenyl]methyl]-5,6,7,8,9,10-hexahydro-4-hydroxy-2H-cycloocta[b]pyran-2-one]
inhibition at 0.123 µM ([2]; Table I, Dose 0.123 μM): 68.9%
inhibition at 0.37 µM ([2]; Table I, Dose 0.370 μM): 88.1%
inhibition at 1.1 µM ([2]; Table I, Dose 1.100 μM): 94%
inhibition at 3.3 µM ([2]; Table I, Dose 3.300 μM): 95.5%
inhibition at 10 µM ([2]; Table I, Dose 10.000 μM): 98.6%
inhibition at 30 µM ([2]; Table I, Dose 30.000 μM): 104%
Ki [3, 11]: 4.15 nM

PROTEASE % INHIB. ([2]; Table I, Dose 0.123 μM): 96.32%
PROTEASE % INHIB. ([2]; Table I, Dose 0.370 μM): 100.98%
PROTEASE % INHIB. ([2]; Table I, Dose 1.100 μM): 102.71%
PROTEASE % INHIB. ([2]; Table I, Dose 3.300 μM): 101.88%
PROTEASE % INHIB. ([2]; Table I, Dose 10.900 μM): 104.28%
PROTEASE % INHIB. ([2]; Table I, Dose 30.000 μM): 107.17%
Ki [3, 11]: 1.3 nM
Compound: 4-Pyridylsulfonamide, N-[4-[cyclopropyl(5,6,7,8,9,10-hexahydro-4-hydroxy-2-oxo-2H-cycloocta[b]pyran-3-yl)methyl]phenyl]- [Example 240]

Compound: Nc1ccc(S(=O)(=O)Nc2cccc(CC3=C(O)CC(CCc4ccccc4)(CCc4ccccc4)OC3=O)c2)nc1 [Example 354, N-[3-{1-(4-Hydroxy-5,6-dihydro-2-oxo-6,6-bis(2-phenylethyl)-2H-pyran-3-yl)methyl}phenyl]-5-aminopyridine-2-sulfonamide]
PROTEASE % INHIB. [2, 4]: < 10%
PROTEASE % INHIB. [2, 5]: 10.37%
PROTEASE % INHIB. [2, 6]: 26.79%
PROTEASE % INHIB. [2, 7]: 46.1%
PROTEASE % INHIB. [2, 8]: 54.97%
PROTEASE % INHIB. [2, 9]: 54.5%
Ki [3, 10]: 665 nM
